Paper PMC6888004 (International Journal of Molecular Sciences, 2019)

Legend:
[1] = set-up: method as in PMID 10639165; conditions: cited from earlier work
[2] = system: endometrial cancer; set-up: method as in https://clinicaltrials.gov; conditions: phase III, ref https://clinicaltrials.gov; cited from earlier work
[3] = system: EBC-1 cells; assay: Cellular uptake in EBC-1 cells by flow cytometry; format: cell-based; conditions: 0.1, 1, 10 µM; 2, 6, 24, 72 h
Protocol: 2 × 10^4 EBC-1 cells per well were seeded onto 24 well plates (VWR) and allowed to adhere for 48 h. Cells were treated with [D-Lys^6(FITC)]–GnRH-I in complemented EMEM (Lonza) at 0.1, 1, and 10 µM, and incubated in a humidified, 5% CO2 atmosphere incubator for 2, 6, 24, and 72 h at 37 °C.
After incubation, supernatant was discarded and the cells were washed twice with PBS (Lonza). Trypsin (Thermo Fisher Scientific, cat. no.: 25300062) was added for 10 min at 37 °C. Cells were pelleted (250× g, 4 min, 4 °C) in flow cytometry tubes, resuspended in 300 µL PBS and kept at 4 °C for the rest of the experiment. The fluorescence intensity of the conjugate-stained cells was analysed using a FACS Calibur flow cytometer (BD Biosciences, San Jose, CA) using channel FL1. Data were evaluated by CellQuest Pro software (BD Biosciences). The relative median fluorescent intensity (MFI) values (based on DMSO control) were calculated.
Calculation formula: relative MFI compound;xh;yµM=MFI compound;xh;yµM/MFI DMSO control;xh • x time (h) • y concentration (µM)

[4] = system: EBC-1 cells; assay: Colocalization with lysosomes in EBC-1 cells by confocal microscopy; format: cell-based; conditions: 10 µM, 24 h
Protocol: EBC-1 cells were seeded in eight well Ibidi® μ-Slide microscopic slides (2 × 10^4 cells/well) and allowed to adhere for 48 h. Cells were then treated with 10 µM [D-Lys^6(FITC)]–GnRH-I in complemented EMEM (Lonza) and incubated in a humidified, 5% CO2 atmosphere incubator for 24 h at 37 °C.
To investigate colocalization of [D-Lys^6(FITC)]–GnRH-I with lysosomes (in Figure 6), after [D-Lys^6(FITC)]–GnRH-I treatment (24 h, 10 µM), Lysoview 633 dye was added to the treating medium and the cells were incubated for a further 1 h. After incubation, cells were washed twice with EMEM. Images of the living cells were acquired with a Zeiss Confocal LSM 710 microscope [Objective: Plan-Apochromat 63×/1.40 Oil DIC M27. Pinhole: 1.95 AU. Laser wavelength: 488 nm and 633 nm. Detection wavelength: 496–573 nm; 633–693 nm)].

Compound | half-life in human serum [1] | clinical outcome compared to doxorubicin [2] | cellular uptake [3] | colocalization with lysosome marker Lysoview 633 [4]
zoptarelin doxorubicin | approximately 2 h | could neither extend overall survival, nor improve the safety profile | – | –
CC(C)C[C@H](NC(=O)[C@@H](CCCCNC(=S)Nc1ccc2c(c1)C(=O)OC21c2ccc(O)cc2Oc2cc(O)ccc21)NC(=O)[C@H](Cc1ccc(O)cc1)NC(=O)[C@H](CO)NC(=O)[C@H](Cc1c[nH]c2ccccc12)NC(=O)[C@H](Cc1c[nH]cn1)NC(=O)[C@@H]1CCC(=O)N1)C(=O)N[C@@H](CCCNC(=N)N)C(=O)N1CCC[C@H]1C(=O)NCC(N)=O [[D-Lys^6(FITC)]–GnRH-I] | – | – | concentration-dependent dynamic uptake | highly correlated
